Data on 7 compounds can be found in patent US20250367330A1, “OPTICAL CLEARING ENABLED BY THE KRAMERS-KRONIG RELATION” (The Board of Trustees of the Leland Stanford Junior …, priority 2021, published 2025).

The nature of series [1]: Ellipsometry measurement of solution refractive index and molar n′ change β. Type of series: physicochemical. Here is the method:
A Horiba UVISEL ellipsometer was used to measure the real and imaginary parts of the refractive index of solutions at different concentrations of specific dye molecules. For solution measurement, 5 mL of solution was added to a shallow glass petri-dish (35×10 mm, Corning Falcon). The solution covers the entire bottom of the petri-dish creating a flat, reflective air-liquid interface. The reflected light was measured at an angle of 69.85° and the refractive index of the solution was calculated using a single interface semi-infinite reflection model. For all the measurements, 0.2 s integration time was used for each wavelength.
Measurements of the Molar n′ Change, β
The molar n′ change, β, is defined and measured according to the following quantitative relationship between the n′ and c (i.e., the concentration) of an aqueous solution containing dissolved clearing agents:
[formula] • where nw′ is the real RI of pure water, c is the molar concentration (M) of the clearing agent, and β is its molar n′ change. Note that n′, nw′, and β all have wavelength dependence. According to eq. (6), by measuring the n′(λ) of the solutions with ellipsometry, one can obtain β(λ) by fitting n′(λ) with c to a linear relationship.

Series [2] is described as follows: UV-Vis absorption of dye solutions in water (molar absorption α, extinction coefficient). The series is classed as physicochemical. To be noted: for absorption at wavelengths above 600 nm: aqueous solutions, b66: 1 mM to 1.0 M. From the text:
A Thermo Fisher Scientific Evolution 350 UV-Vis spectrophotometer was used to measure the transmission and absorption spectra of dye solutions, silica phantoms, and ex-vivo chicken breast tissues. For all the measurements, 0.2 s acquisition time was used for each wavelength.
For transmission measurements of dye solutions, 1 mm optical path quartz cuvettes (high precision, two polished sides, Orient Analytics) were used and the cells were washed with aqua regia (mixture of 36.5-38.0 w/w % HCl and 68.0-70.0 w/w % HNO3 with a volume ratio of 3:1), fully rinsed with water and dried before use. A reference spectrum was acquired with water alone, thus correcting any loss of light due to intrinsic water absorption and reflection at the air-quartz interfaces.

The conditions of series [3]: when used as a clearing agent, reported; cited from earlier work.
Series [4] is described as follows: Screening of absorbing molecules for K-Klear by α, β and β/α spectra. Type of series: physicochemical.
Source text: (FIG. 3A) The relation between average molar absorption a and average molar n′ change β in the wavelength range between 500 to 700 nm for different molecules. (FIG. 3B) The ratio between the molar n′ change and molar absorption (β/α) for different absorbing molecules. The “white window” indicates a potential clearing spectrum with sufficient Δn′ and minimal absorption. (FIGS. 3C-3D) Imaginary part n″ (FIG. 3C) and real part n′ (FIG. 3D) of the RI of Dye-4 solutions at different concentrations measured from ellipsometry.
In practice, the agent should display a large absorption coefficient in order to realize the large, required changes in n′. […] At the same time, the agent should have minimal absorption at the wavelength for imaging, thus calling for a single narrow absorption peak without any additional absorption at longer wavelengths. In addition to these purely optical requirements, the agents also need to display a high solubility and diffusivity in water as well as excellent biocompatibility to facilitate in vivo application.
Series [5] in a line: Imaging of 1951 USAF resolution target through 1-mm scattering phantoms. The conditions noted are these: optimum K-Klear conditions.
Protocol: To this end, the resolvable spatial frequencies of a 1951 US Air Force (USAF) resolution target were quantified when imaging it through 1-mm scattering phantoms with different Dye-4 concentrations (FIGS. 5A-5B; FIGS. 14A-15E; see Example 7 for preparation of the phantom). The scattering phantom is placed between the objective lens and the USAF target, which is back illuminated with a white lamp (FIG. 16).
The hydrogel-silica scatter phantom in FIGS. 5A-5M was prepared by mixing the silica nanoparticle suspension (1 μm, 10 mg mL^−1) with low melting temperature agarose and Dye-4 of different amounts. The final concentration of agarose was 6 mg mL^−1. […] The mixture was then heated in an oven at 70° C. for at least 10 min to facilitate the dissolution of agarose. A 400-μL suspension was pipetted and injected into the well of a 1-mm silicone isolator (Grace bio-labs, Bend, Oregon, USA) mounted on a coverslip (24×40×0.15 mm, Fisher Scientific). The top of the solution was then sealed by another coverslip (22×22×0.15 mm, Thermo Scientific, Waltham, Massachusetts, USA) and the phantom was left at room temperature for slow solidification. […]
Series [6] has as its system chicken breast tissue. Kind of series: Ex vivo K-Klear of chicken breast tissue, transmittance and attenuation coefficient. To be noted: immersion in 0.62 M solution, beyond 600 nm.
Source text: To gradually increase the n′ of the aqueous components in chicken breast, the tissue slices were sequentially immersed in solutions containing an increasing concentration of Dye-4 (FIG. 6A; see Example 7).
To verify this point, the Dye-4 concentration was varied in the last immersion step and measure T before and after dye immersion (FIGS. 6C and 18).
For transmission measurements of chicken breast tissue, the tissue sample was first mounted on a microscope slide (precleaned, 12-550-15, Fisher Scientific), which was placed in the light path of the UV-Vis spectrometer to ensure that the entire incident beam is blocked by the tissue. For time-dependent transmission measurement, the tissue was cut to fit into a 1 cm optical path plastic cuvette (acrylic, 14-955-126, Fisher Scientific) while having sufficient area to completely block the incident light. 3 mL of Dye-4 solution was then slowly added to fully immerse the chicken breast tissue, before the cuvette was sealed by parafilm (Bemis Company, Inc., Neenah, Wisconsin, USA) to minimize water evaporation. […]
The thickness of the tissue was measured by sandwiching the tissue between two coverslips (22×22×0.15 mm, Thermal Scientific) using a digital caliper (Mitutoyo). The transmission spectra of the tissue were measured by attaching the chicken breast tissue on a microscope slide (precleaned, Fisher Scientific). […]
Series [7] relates to chicken breast tissue. The experiment in a line: Temporal evolution of transmittance during immersion, diffusion in chicken breast tissue.
Source text: (FIG. 19A) Temporal evolution of transmittance T at different wavelengths of a chicken breast tissue immersed in a 0.62 M solution of Dye-4. (FIG. 19B) Temporal evolution of normalized T at different wavelengths. T is normalized between 0 and 1 against minimum and maximum T for each wavelength. (FIG. 19C) Temporal evolution of normalized T averaged over measurements at all wavelengths in FIG. 19B, enabling the extraction of the diffusion constant by fitting the normalized T to
This tissue sample has a thickness of d=1.82 mm; therefore, the diffusion coefficient D of Dye-4 therein can be calculated as
For this reason, estimates of the diffusion rate of Dye-4 molecules can be made in chicken breast by tracking the temporal evolution of T during dye immersion (FIGS. 6F and 19A-19C). […] Using a dilute solution to achieve the same Δn′ and clearing effect benefits from a low viscosity of the clearing agent, thus promoting its diffusion kinetics.
For transmission measurements of chicken breast tissue, the tissue sample was first mounted on a microscope slide (precleaned, 12-550-15, Fisher Scientific), which was placed in the light path of the UV-Vis spectrometer to ensure that the entire incident beam is blocked by the tissue. For time-dependent transmission measurement, the tissue was cut to fit into a 1 cm optical path plastic cuvette (acrylic, 14-955-126, Fisher Scientific) while having sufficient area to completely block the incident light. 3 mL of Dye-4 solution was then slowly added to fully immerse the chicken breast tissue, before the cuvette was sealed by parafilm (Bemis Company, Inc., Neenah, Wisconsin, USA) to minimize water evaporation. The temperature of the cuvette was controlled between 25 and 30° C. during measurements.
The thickness of the tissue was measured by sandwiching the tissue between two coverslips (22×22×0.15 mm, Thermal Scientific) using a digital caliper (Mitutoyo). The transmission spectra of the tissue were measured by attaching the chicken breast tissue on a microscope slide (precleaned, Fisher Scientific).
The test system of the next series is mouse scalp. The experiment in a line: In vivo optical clearing of mouse scalp by topical gel, laser speckle imaging of cerebral vessels. Also on record: species or system mice. To be noted: gel containing 0.62 M dye, 785 nm. The text has this: Given the successful clearing of scattering phantoms and chicken breasts using this approach, the possibility to achieve clearing in live animals was next explored. Procedures were developed to circumvent the destructive procedures or the use of toxic chemicals commonly used in ex vivo tissue clearing methods. […] It was hypothesized that owing to the small molecular weight and sufficiently large diffusion coefficient of Dye-4 in tissue, it can be delivered topically to optically clear the skin, thus exposing underlying structures that are otherwise obscured by the skin (FIG. 7A). […] The opacity of the scalp always requires its removal for fluorescence imaging of neuron activity or laser speckle imaging of cerebral hemodynamics in the mouse brain. […]
(§1) Before each imaging experiment, the mice were weighed and anesthetized via intraperitoneal (i.p.) injection of a mixture of 16 mg/kg ketamine (Dechra Veterinary Products) and 0.2 mg/kg dexdomitor (Dexmedesed; Dechra Veterinary Products) by insulin syringes with a 30 G needle gauge. […] The hair over the mouse head was removed for the in-vivo fluorescence imaging at the mice head. The hair over the mouse hindlimbs was removed for in-vivo reflectance and fluorescence imaging at the hind limbs. […]

For a further series, the system named is mouse hindlimb skin. The experiment in a line: In vivo optical clearing of mouse hindlimb skin by topical gel, SHG sarcomere imaging. More on the design: species or system mice. The conditions noted are these: gel containing 0.62 M dye topically.
Source text: Sarcomeres, basic contractile units of skeletal and cardiac muscles, were chosen as the targets for imaging owing to their central roles in muscle functions and implications in neuromuscular diseases (e.g., spinal muscular atrophy). Existing in vivo sarcomere imaging methods require the invasive implantation of microendoscopes inside the muscle tissue for imaging the second-harmonic generation (SHG) signals from myosin rods in the sarcomere. It was hypothesized that the need for an invasively implanted microendoscope can be alleviated by applying the K-Klear method to reduce the scattering in the skin. […] This average periodicity value between SHG-generating myosin rods agrees with the reported sarcomere lengths measured via an implanted microendoscope, thus confirming the ability of K-Klear to resolve microscopic features through cleared tissue. […]
as §1

The conditions of series [8]: EFSA conclusion; cited from earlier work.
The mark [9] stands for this setting: wavelength 600 nm, aqueous solution.

Consider `OCC(O)CO` [Glycerol, reference compound], for which the “concentration needed to raise the baseline n′ of water to match that of lipids” value in series [1] is reported as 11.6 M. In addition, the “Molar n′ change β” value in series [1] (in the visible spectrum) and in [1] (wavelength 589.6 nm) was 0.0129 M⁻¹ each time. In addition, the “molar absorption coefficient α” value in series [2] was found to be 0.012 M⁻¹.

As for `[Cl-].[Na+]` [Sodium chloride, reference compound], the “Molar n′ change β” value in series [1] (wavelength 589 nm) is 0.00094 M⁻¹.

Take `CC(O)CO` (stereo not shown) [Propylene glycol, reference compound]: the “Molar n′ change β” value in [1] (wavelength 589.6 nm) amounted to 0.0084 M⁻¹. Moreover, in [3], the diffusion coefficient is 0.021×10^−6 cm^2 s^−1.

As to `O=C([O-])c1nn(-c2ccc(S(=O)(=O)[O-])cc2)c(O)c1/N=N/c1ccc(S(=O)(=O)[O-])cc1.[Na+].[Na+].[Na+]` [Dye-4, Trisodium 5-hydroxy-1-(4-sulfonato-phenyl)-4-[(E)-(4-sulfonato-phenyl)diazenyl]-1H-pyrazole-3-carboxylate], the “β higher than that of molecules commonly used to raise the n′ of water” value in [1] was 2-3 orders of magnitude. Moreover, the “efficiency in raising the n′ of water relative to glycerol on a per molar basis” value in [1] (at 600 nm) is 11 ×. The “n′ of solution reachable” value in series [1] (at a soluble concentration, ellipsometry) was “up to 1.49”. The “Molar n′ change β” value in series [1] (wavelength 500 nm, aqueous solution) was determined as 0.198 ± 0.005 M⁻¹; in series [1] (setting [9]), 0.143 ± 0.004 M⁻¹; in series [1] (wavelength 700 nm, aqueous solution), 0.128 ± 0.004 M⁻¹; in series [1] (wavelength 800 nm, aqueous solution), 0.130 ± 0.008 M⁻¹. Besides, the figures for the “absorption at wavelengths above 600 nm” value in series [2] and in series [2] (listed as tartrazine) were “minimally absorbing” and “do not absorb”, respectively. For the same compound, in series [2] (dissolved in water), the peak absorption wavelength came to 428 nm. The “β among candidates while maintaining low α” value in series [4] (visible spectrum of 500-700 nm, 21 candidates) is “highest”. The “resolvable spatial frequency through 1-mm scattering phantom” value in series [5] is “up to 228.1 lp mm^−1”. Besides, the “normalized attenuation coefficient relative to original tissue” value in the series on chicken breast tissue [6] was “approximately 40%”. Also, in the series on chicken breast tissue [7] (0.62 M solution, tissue thickness 1.82 mm), the “time constant τ of normalized transmittance” value came to 85.0 ± 1.2 min. For the same compound, the “time until transmission changes saturate” value in the series with chicken breast tissue [7] (2-mm-thick chicken breast, 0.62 M solution) lay in the range of 2 to 3 h. Also, in the series with chicken breast tissue [7] (in chicken breast tissue, clearing solution), the diffusion coefficient is reported as 0.66×10^−6 cm^2 s^−1. In addition, the “laser speckle image through intact scalp after topical application” value with mouse scalp is given as “clearly reveals vascular structures representative of cerebral vessels”. Further, the “characteristic periodicity (sarcomere length) identified through the skin window” value in the series with mouse hindlimb skin amounted to 2.60±0.28 μm. Besides, in the series on mouse hindlimb skin (1040 nm), the “depth at which sarcomere structures are identified through the skin” value is over 200 μm. For the same compound, in series [8], the “dose with no adverse effects or systemic toxicity” value is “up to 2 g per kg of body weight”.

Take `OC[C@H]1O[C@@](CO)(O[C@H]2O[C@H](CO)[C@@H](O)[C@H](O)[C@H]2O)[C@@H](O)[C@@H]1O` [Sucrose, reference compound]: the “Molar n′ change β” value in series [1] (wavelength 589.6 nm) is 0.0462 M⁻¹. In addition, the “required immersion time to achieve the same n′ increase” value in the series with chicken breast tissue [7] (chicken breast) is listed as 24 h.

In the case of `Cc1cc(=O)n(-c2ccccc2)n1C` [Antipyrine, reference compound], the “Molar n′ change β” value in series [1] (setting [9]) is 0.037 ± 0.003 M⁻¹.

For the compound `CC1(C)C(/C=C/C2=C(Cl)C(=C/C=C3\N(CCCCS(=O)(=O)[O-])c4ccccc4C3(C)C)/CCC2)=[N+](CCCCS(=O)(=O)[O-])c2ccccc21.[Na+]` [Dye-21, Sodium 4-[2-[2-[2-chloro-3-[2-[3,3-dimethyl-1-(4-sulfonato-butyl)indol-1-ium-2-yl]vinyl]cyclohex-2-en-1-ylidene]ethylidene]-3,3-dimethyl-indolin-1-yl]butane-1-sulfonate], the “potential for clearing from β/α spectrum” value in series [4] (longer wavelengths / NIR spectrum) was “greatest potential”.
